The subject of this experiment is reverse cholesterol transport (RCT). Description: Global RCT parameter in rats: Ra cholesterol combined with recovery of administered labeled cholesterol in fecal neutral sterols or bile acids. The class given is in vivo. The note with it: for "global parameter" of RCT into neutral sterols (product of Ra cholesterol and excretion of plasma cholesterol): rats fed the agent for 7 days. How it is done:
A refinement of the approach outlined in Example 1, involves calculating the Ra of plasma cholesterol and combining that measurement with the fractional excretion of administered cholesterol as described in Example 4. The recovery of plasma cholesterol in stool is defined as the proportion of administered labeled cholesterol that was excreted in fecal neutral sterols. It is expressed as % label recovered from day 1-4 following infusion. It is calculated from: % ^13C enrichment in fecal neutral sterols, the mg/day excretion of neutral sterols and divided by total mg 1 ^13C cholesterol administered. [formula] The same calculation is made for the recovery of plasma cholesterol into bile acids excreted in stool. Rats were treated with common and investigational cholesterol lowering agents, cholesterolamine, ezetimibe, LXR agonist (TO-901317). The Ra of cholesterol is calculated as described, the recovery of administered cholesterol in fecal sterol or bile acids are calculated as described.

For the molecule `O=S(=O)(c1ccccc1)N(CC(F)(F)F)c1ccc(C(O)(C(F)(F)F)C(F)(F)F)cc1` [TO-901317], the “"global parameter" of RCT into neutral sterols (product of Ra cholesterol and excretion of plasma cholesterol)” value is recorded as “significant increase observed”. For the same molecule, the “excretion of plasma cholesterol into neutral sterols and the global parameter of RCT” value (rats) is recorded as “observed increase in RCT”.
In the case of `O=C1[C@H](CC[C@H](O)c2ccc(F)cc2)[C@@H](c2ccc(O)cc2)N1c1ccc(F)cc1` [ezetimibe], the “"global parameter" of RCT into neutral sterols (product of Ra cholesterol and excretion of plasma cholesterol)” value is “significant increase observed”. Besides, the “plasma flux to neutral sterols (effect on RCT)” value (rats, FIG. 12) was “increase in plasma flux to neutral sterols”.

The values are drawn from patent publication US20060251576A1, “Methods for measuring cholesterol metabolism and transport” (The Regents of the University of California, priority 2005, published 2006).
